{"source": "patent US11090319B2", "about": "“Therapeutic uses of pharmaceutical compositions comprising cyclic boronic acid ester derivatives” (Melinta Subsidiary Corp., priority 2010, dated 2021)", "key": {"[1]": {"test_system": "strains expressing KPC alone or in combination with additional beta-lactamases", "assay": "microbe, parasite or virus in culture", "assay_type": "cell-based"}, "[2]": {"test_system": "EC1007 Escherichia coli KPC-3", "assay": "Checkerboard assay, biapenem potentiation", "conditions": "Biapenem MIC 8-fold; EC1007 KPC-3 class A"}, "[3]": {"test_system": "AB1052 Acinetobacter baumannii OXA-24", "assay": "Checkerboard assay, biapenem potentiation", "conditions": "Biapenem MIC 8-fold; AB1052 OXA-24 class D"}, "[4]": {"conditions": "Klebsiella pneumoniae KP 1004, KPC-2, Compound 5 5 mg/L"}, "[5]": {"conditions": "Klebsiella pneumoniae KP 1004, KPC-2, Compound 5 10 mg/L"}, "[6]": {"conditions": "Klebsiella pneumoniae KP 1008, KPC-2, Compound 5 0.31 mg/L"}, "[7]": {"conditions": "Klebsiella pneumoniae KP 1008, KPC-2, Compound 5 0.625 mg/L"}, "[8]": {"conditions": "Klebsiella pneumoniae KP 1008, KPC-2, Compound 5 […]"}, "[9]": {"conditions": "Klebsiella pneumoniae KP1082, KPC-2 SHV-1, Compound 5 0.31 mg/L"}, "[10]": {"conditions": "Klebsiella pneumoniae KP1082, KPC-2 SHV-1, Compound 5 0.625 mg/L"}, "[11]": {"conditions": "Klebsiella pneumoniae KP1082, KPC-2 SHV-1, Compound 5 5 mg/L"}, "[12]": {"conditions": "Klebsiella pneumoniae KP1082, KPC-2 SHV-1, Compound 5 10 mg/L"}, "[13]": {"conditions": "Klebsiella pneumoniae KP1082, KPC-2 SHV-1, Compound 5 […]"}, "[14]": {"conditions": "Klebsiella pneumoniae KP1083, KPC-3, SHV-1, TEM-1, Compound 5 10 mg/L"}, "[15]": {"conditions": "Klebsiella pneumoniae KP1083, KPC-3, SHV-1, TEM-1, Compound 5 […]"}, "[16]": {"conditions": "Klebsiella pneumoniae KP1084, KPC-3, SHV-11, TEM-1, Compound 5 5 mg/L"}, "[17]": {"conditions": "Klebsiella pneumoniae KP1084, KPC-3, SHV-11, TEM-1, Compound 5 10 mg/L"}, "[18]": {"conditions": "Klebsiella pneumoniae KP 1087, KPC-2, CTX-M-15, SHV-11, TEM-1, Compound 5 0.31 mg/L"}, "[19]": {"conditions": "Klebsiella pneumoniae KP 1087, KPC-2, CTX-M-15, SHV-11, TEM-1, Compound 5 0.625 mg/L"}, "[20]": {"conditions": "Klebsiella pneumoniae KP 1087, KPC-2, CTX-M-15, SHV-11, TEM-1, Compound 5 5 mg/L"}, "[21]": {"conditions": "Klebsiella pneumoniae KP 1087, KPC-2, CTX-M-15, SHV-11, TEM-1, Compound 5 10 mg/L"}, "[22]": {"conditions": "Klebsiella pneumoniae KP1088, KPC-3, SHV-11, TEM-1, Compound 5 0.31 mg/L"}, "[23]": {"conditions": "Klebsiella pneumoniae KP1088, KPC-3, SHV-11, TEM-1, Compound 5 0.625 mg/L"}, "[24]": {"conditions": "Klebsiella pneumoniae KP1088, KPC-3, SHV-11, TEM-1, Compound 5 5 mg/L"}, "[25]": {"conditions": "Klebsiella pneumoniae KP1088, KPC-3, SHV-11, TEM-1, Compound 5 10 mg/L"}}, "data": [{"smiles": "O=C(O)C[C@@H]1CC[C@H](NC(=O)Cc2cccs2)B(O)O1", "note": "[Compound 5, 2-((3R,6S)-2-hydroxy-3-(2-(thiophen-2-yl)acetamido)-1,2-oxaborinan-6-yl)acetic acid]", "values": [{"measurement": "MIC of Doripenem", "setting": "[1]; [4]", "value": "X (MIC of less than 0.5 mg/L)"}, {"measurement": "MIC of Ertapenem", "setting": "[1]; [4]", "value": "X (MIC of less than 0.5 mg/L)"}, {"measurement": "MIC of Biapenem", "setting": "[1]; [5]", "value": "X (MIC of less than 0.5 mg/L)"}, {"measurement": "MIC of Doripenem", "setting": "[1]; [5]", "value": "X (MIC of less than 0.5 mg/L)"}, {"measurement": "MIC of Ertapenem", "setting": "[1]; [5]", "value": "X (MIC of less than 0.5 mg/L)"}, {"measurement": "MIC of Biapenem", "setting": "[1]; Klebsiella pneumoniae KP 1004, KPC-2, Compound 5 […]", "value": "X (MIC of less than 0.5 mg/L)"}, {"measurement": "MIC of Biapenem", "setting": "[1]; [6]", "value": "X (MIC of less than 0.5 mg/L)"}, {"measurement": "MIC of Doripenem", "setting": "[1]; [6]", "value": "X (MIC of less than 0.5 mg/L)"}, {"measurement": "MIC of Ertapenem", "setting": "[1]; [6]", "value": "X (MIC of less than 0.5 mg/L)"}, {"measurement": "MIC of Biapenem", "setting": "[1]; [7]", "value": "X (MIC of less than 0.5 mg/L)"}, {"measurement": "MIC of Doripenem", "setting": "[1]; [7]", "value": "X (MIC of less than 0.5 mg/L)"}, {"measurement": "MIC of Ertapenem", "setting": "[1]; [7]", "value": "X (MIC of less than 0.5 mg/L)"}, {"measurement": "MIC of Biapenem", "setting": "[1]; [8]", "value": "X (MIC of less than 0.5 mg/L)"}, {"measurement": "MIC of Doripenem", "setting": "[1]; [8]", "value": "X (MIC of less than 0.5 mg/L)"}, {"measurement": "MIC of Ertapenem", "setting": "[1]; [8]", "value": "X (MIC of less than 0.5 mg/L)"}, {"measurement": "MIC of Biapenem", "setting": "[1]; [9]", "value": "X (MIC of less than 0.5 mg/L)"}, {"measurement": "MIC of Doripenem", "setting": "[1]; [9]", "value": "X (MIC of less than 0.5 mg/L)"}, {"measurement": "MIC of Ertapenem", "setting": "[1]; [9]", "value": "X (MIC of less than 0.5 mg/L)"}, {"measurement": "MIC of Biapenem", "setting": "[1]; [10]", "value": "X (MIC of less than 0.5 mg/L)"}, {"measurement": "MIC of Doripenem", "setting": "[1]; [10]", "value": "X (MIC of less than 0.5 mg/L)"}, {"measurement": "MIC of Ertapenem", "setting": "[1]; [10]", "value": "X (MIC of less than 0.5 mg/L)"}, {"measurement": "MIC of Biapenem", "setting": "[1]; [11]", "value": "X (MIC of less than 0.5 mg/L)"}, {"measurement": "MIC of Doripenem", "setting": "[1]; [11]", "value": "X (MIC of less than 0.5 mg/L)"}, {"measurement": "MIC of Ertapenem", "setting": "[1]; [11]", "value": "X (MIC of less than 0.5 mg/L)"}, {"measurement": "MIC of Biapenem", "setting": "[1]; [12]", "value": "X (MIC of less than 0.5 mg/L)"}, {"measurement": "MIC of Doripenem", "setting": "[1]; [12]", "value": "X (MIC of less than 0.5 mg/L)"}, {"measurement": "MIC of Ertapenem", "setting": "[1]; [12]", "value": "X (MIC of less than 0.5 mg/L)"}, {"measurement": "MIC of Biapenem", "setting": "[1]; [13]", "value": "X (MIC of less than 0.5 mg/L)"}, {"measurement": "MIC of Doripenem", "setting": "[1]; [13]", "value": "X (MIC of less than 0.5 mg/L)"}, {"measurement": "MIC of Ertapenem", "setting": "[1]; [13]", "value": "X (MIC of less than 0.5 mg/L)"}, {"measurement": "MIC of Doripenem", "setting": "[1]; [14]", "value": "X (MIC of less than 0.5 mg/L)"}, {"measurement": "MIC of Ertapenem", "setting": "[1]; [14]", "value": "X (MIC of less than 0.5 mg/L)"}, {"measurement": "MIC of Doripenem", "setting": "[1]; [15]", "value": "Y (MIC of 0.5 mg/L to 4 mg/L)"}, {"measurement": "MIC of Ertapenem", "setting": "[1]; [15]", "value": "Y (MIC of 0.5 mg/L to 4 mg/L)"}, {"measurement": "MIC of Ertapenem", "setting": "[1]; Klebsiella pneumoniae KP1084, KPC-3, SHV-11, TEM-1, Compound 5 0.31 mg/L", "value": "Z (MIC of greater than 4 mg/L)"}, {"measurement": "MIC of Ertapenem", "setting": "[1]; Klebsiella pneumoniae KP1084, KPC-3, SHV-11, TEM-1, Compound 5 0.625 mg/L", "value": "Z (MIC of greater than 4 mg/L)"}, {"measurement": "MIC of Biapenem", "setting": "[1]; [16]", "value": "X (MIC of less than 0.5 mg/L)"}, {"measurement": "MIC of Doripenem", "setting": "[1]; [16]", "value": "Y (MIC of 0.5 mg/L to 4 mg/L)"}, {"measurement": "MIC of Ertapenem", "setting": "[1]; [16]", "value": "Y (MIC of 0.5 mg/L to 4 mg/L)"}, {"measurement": "MIC of Biapenem", "setting": "[1]; [17]", "value": "X (MIC of less than 0.5 mg/L)"}, {"measurement": "MIC of Doripenem", "setting": "[1]; [17]", "value": "X (MIC of less than 0.5 mg/L)"}, {"measurement": "MIC of Ertapenem", "setting": "[1]; [17]", "value": "Y (MIC of 0.5 mg/L to 4 mg/L)"}, {"measurement": "MIC of Ertapenem", "setting": "[1]; Klebsiella pneumoniae KP1084, KPC-3, SHV-11, TEM-1, Compound 5 […]", "value": "Z (MIC of greater than 4 mg/L)"}, {"measurement": "MIC of Biapenem", "setting": "[1]; [18]", "value": "Z (MIC of greater than 4 mg/L)"}, {"measurement": "MIC of Doripenem", "setting": "[1]; [18]", "value": "Z (MIC of greater than 4 mg/L)"}, {"measurement": "MIC of Ertapenem", "setting": "[1]; [18]", "value": "Z (MIC of greater than 4 mg/L)"}, {"measurement": "MIC of Biapenem", "setting": "[1]; [19]", "value": "Z (MIC of greater than 4 mg/L)"}, {"measurement": "MIC of Doripenem", "setting": "[1]; [19]", "value": "Z (MIC of greater than 4 mg/L)"}, {"measurement": "MIC of Ertapenem", "setting": "[1]; [19]", "value": "Z (MIC of greater than 4 mg/L)"}, {"measurement": "MIC of Biapenem", "setting": "[1]; [20]", "value": "X (MIC of less than 0.5 mg/L)"}, {"measurement": "MIC of Doripenem", "setting": "[1]; [20]", "value": "Y (MIC of 0.5 mg/L to 4 mg/L)"}, {"measurement": "MIC of Ertapenem", "setting": "[1]; [20]", "value": "Y (MIC of 0.5 mg/L to 4 mg/L)"}, {"measurement": "MIC of Biapenem", "setting": "[1]; [21]", "value": "X (MIC of less than 0.5 mg/L)"}, {"measurement": "MIC of Doripenem", "setting": "[1]; [21]", "value": "X (MIC of less than 0.5 mg/L)"}, {"measurement": "MIC of Ertapenem", "setting": "[1]; [21]", "value": "Y (MIC of 0.5 mg/L to 4 mg/L)"}, {"measurement": "MIC of Ertapenem", "setting": "[1]; Klebsiella pneumoniae KP 1087, KPC-2, CTX-M-15, SHV-11, TEM-1, Compound 5 […]", "value": "Z (MIC of greater than 4 mg/L)"}, {"measurement": "MIC of Biapenem", "setting": "[1]; [22]", "value": "X (MIC of less than 0.5 mg/L)"}, {"measurement": "MIC of Doripenem", "setting": "[1]; [22]", "value": "Y (MIC of 0.5 mg/L to 4 mg/L)"}, {"measurement": "MIC of Ertapenem", "setting": "[1]; [22]", "value": "Y (MIC of 0.5 mg/L to 4 mg/L)"}, {"measurement": "MIC of Biapenem", "setting": "[1]; [23]", "value": "X (MIC of less than 0.5 mg/L)"}, {"measurement": "MIC of Doripenem", "setting": "[1]; [23]", "value": "X (MIC of less than 0.5 mg/L)"}, {"measurement": "MIC of Ertapenem", "setting": "[1]; [23]", "value": "X (MIC of less than 0.5 mg/L)"}, {"measurement": "MIC of Biapenem", "setting": "[1]; [24]", "value": "X (MIC of less than 0.5 mg/L)"}, {"measurement": "MIC of Doripenem", "setting": "[1]; [24]", "value": "X (MIC of less than 0.5 mg/L)"}, {"measurement": "MIC of Ertapenem", "setting": "[1]; [24]", "value": "X (MIC of less than 0.5 mg/L)"}, {"measurement": "MIC of Biapenem", "setting": "[1]; [25]", "value": "X (MIC of less than 0.5 mg/L)"}, {"measurement": "MIC of Doripenem", "setting": "[1]; [25]", "value": "X (MIC of less than 0.5 mg/L)"}, {"measurement": "MIC of Ertapenem", "setting": "[1]; [25]", "value": "X (MIC of less than 0.5 mg/L)"}, {"measurement": "MPC8", "setting": "[2]", "value": "X (MPC8 of less than 0.16 μg/mL)"}, {"measurement": "MPC8", "setting": "[3]", "value": "Z (MPC8 of greater than 1 μg/mL)"}]}]}
